Columns and labels:
ΔF508-CFTR [1] = molecular target: T1, ΔF508-CFTR (Homo sapiens, UniProt P13569, DEL508-508); test: CFTR cell surface levels using HRP-tagged ΔF508-CFTR expressing CFBE cells, intrinsic corrector capacity; format: cell-based; set-up: % Activation: concentration or dose not given beside the values; conditions: HRP-tagged ΔF508-CFTR expressing CFBE41o- cells, compound alone (intrinsic corrector capacity), 20 hours at 33° C.; for EC50: read-out: EC50
T1 construct: host or cells: CFBE41o-, doxycycline-inducible
T1 sequence (P13569 with tags, fused parts or gaps DEL508-508): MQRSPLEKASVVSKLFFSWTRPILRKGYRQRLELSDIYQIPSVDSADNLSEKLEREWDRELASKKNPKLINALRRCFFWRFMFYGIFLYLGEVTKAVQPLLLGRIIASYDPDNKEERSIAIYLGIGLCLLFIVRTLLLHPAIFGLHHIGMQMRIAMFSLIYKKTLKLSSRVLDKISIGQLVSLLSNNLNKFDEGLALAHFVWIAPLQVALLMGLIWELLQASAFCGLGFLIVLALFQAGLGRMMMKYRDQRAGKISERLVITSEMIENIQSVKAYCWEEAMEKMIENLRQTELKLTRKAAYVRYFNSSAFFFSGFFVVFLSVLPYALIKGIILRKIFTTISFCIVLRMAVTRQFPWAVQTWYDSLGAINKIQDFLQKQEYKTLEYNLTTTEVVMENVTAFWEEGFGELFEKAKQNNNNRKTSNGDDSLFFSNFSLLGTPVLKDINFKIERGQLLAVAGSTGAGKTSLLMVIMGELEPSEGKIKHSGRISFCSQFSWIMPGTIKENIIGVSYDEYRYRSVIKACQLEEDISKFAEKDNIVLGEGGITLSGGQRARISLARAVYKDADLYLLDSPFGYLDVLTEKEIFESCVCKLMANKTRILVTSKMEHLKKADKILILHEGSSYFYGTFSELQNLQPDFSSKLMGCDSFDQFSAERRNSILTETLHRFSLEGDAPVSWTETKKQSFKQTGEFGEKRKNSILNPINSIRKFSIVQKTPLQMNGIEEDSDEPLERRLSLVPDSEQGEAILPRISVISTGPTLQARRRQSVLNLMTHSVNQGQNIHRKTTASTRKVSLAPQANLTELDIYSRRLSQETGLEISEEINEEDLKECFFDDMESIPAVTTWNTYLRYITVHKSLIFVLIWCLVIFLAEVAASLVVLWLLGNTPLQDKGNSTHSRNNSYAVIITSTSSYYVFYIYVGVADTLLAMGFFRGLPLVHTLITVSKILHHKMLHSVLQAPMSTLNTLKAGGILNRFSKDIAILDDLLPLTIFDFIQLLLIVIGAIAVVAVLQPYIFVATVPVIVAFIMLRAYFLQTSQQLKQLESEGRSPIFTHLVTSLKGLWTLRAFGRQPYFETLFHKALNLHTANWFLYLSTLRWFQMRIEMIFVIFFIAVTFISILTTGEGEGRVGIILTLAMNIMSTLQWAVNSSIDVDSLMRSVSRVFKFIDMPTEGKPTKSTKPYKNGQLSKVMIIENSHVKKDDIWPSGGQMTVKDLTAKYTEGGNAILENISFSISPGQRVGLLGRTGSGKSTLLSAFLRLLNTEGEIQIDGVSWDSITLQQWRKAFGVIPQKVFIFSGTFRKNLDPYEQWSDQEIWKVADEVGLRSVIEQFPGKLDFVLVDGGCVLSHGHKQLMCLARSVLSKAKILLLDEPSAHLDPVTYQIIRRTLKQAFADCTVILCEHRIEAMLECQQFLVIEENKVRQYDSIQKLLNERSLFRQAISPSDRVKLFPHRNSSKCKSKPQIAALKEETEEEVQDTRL
Procedure, shortened: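 Read-out: chemiluminescent HRP activity of ECL4-HRP-tagged ΔF508-CFTR at the cell surface, 15 min substrate in dark. Normalized as 100×(sample−DMSO)/(positive control−DMSO).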

ΔF508-CFTR [2] = molecular target: T1, ΔF508-CFTR; test: CFTR cell surface levels using HRP-tagged ΔF508-CFTR expressing CFBE cells, in the presence of a co-corrector; format: cell-based; conditions: HRP-tagged ΔF508-CFTR CFBE cells, in the presence of 3 μM co-corrector; for EC50: read-out: EC50
Procedure, shortened: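 Chemiluminescent read-out of surface HRP (15 min, dark) after PBS washes. Activity is normalized as 100×(sample−DMSO)/(3 μM co-corrector alone−DMSO).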

Row | SMILES | % Activation (ΔF508-CFTR [1]) [%] | EC50 (ΔF508-CFTR [1]) [nM] | % Activation (ΔF508-CFTR [2]) [%] | EC50 (ΔF508-CFTR [2]) [nM]
1 | CCN1CCN(Cc2ccc(-c3cc(C(=O)NS(C)(=O)=O)nc4c3c(OC(C)C)nn4C3CCCCC3)cc2)CC1 [Compound 642, 1-cyclohexyl-4-{4-[(4-ethylpiperazin-1-yl)methyl]phenyl}-N-(methanesulfonyl)-3-[(propan-2-yl)oxy]-1H-pyrazolo[3,4-b]pyridine-6-carboxamide] | 222 | 235 | 430.9 | 97.3
2 | CC(C)Oc1nn(C2CCCCC2)c2nc(C(=O)NS(C)(=O)=O)cc(-c3ccc(CN4CCC(N(C)C)CC4)cc3)c12 [Compound 643, 1-cyclohexyl-4-(4-{[4-(dimethylamino)piperidin-1-yl]methyl}phenyl)-N-(methanesulfonyl)-3-[(propan-2-yl)oxy]-1H-pyrazolo[3,4-b]pyridine-6-carboxamide] | 181.65 | 506 | 445.25 | 497
3 | COC1CCN(C2CCN(c3cc(C(=O)NS(C)(=O)=O)nc4c3c(OC(C)C)nn4-c3ccc(F)cc3)CC2)CC1 [Compound 644, 1-(4-fluorophenyl)-N-(methanesulfonyl)-4-(4-methoxy[1,4'-bipiperidin]-1'-yl)-3-[(propan-2-yl)oxy]-1H-pyrazolo[3,4-b]pyridine-6-carboxamide] | 266.9 | 253 | 529.95 | 160
4 | CNS(=O)(=O)NC(=O)c1cc(N2CCC(N3CCC(F)CC3)CC2)c2c(C3CCC3)nn(-c3ccc(F)cc3)c2n1 [Compound 650, 3-cyclobutyl-4-(4-fluoro[1,4'-bipiperidin]-1'-yl)-1-(4-fluorophenyl)-N-(methylsulfamoyl)-1H-pyrazolo[3,4-b]pyridine-6-carboxamide] | 385.4 | 115 | 592.45 | 96.4
5 | CC(C)N1CCN(C2CCN(c3cc(C(=O)NS(=O)(=O)N4CCC4)nc4c3c(C3CCC3)nn4-c3ccc(F)cc3)CC2)CC1 [Compound 651, N-(azetidine-1-sulfonyl)-3-cyclobutyl-1-(4-fluorophenyl)-4-{4-[4-(propan-2-yl)piperazin-1-yl]piperidin-1-yl}-1H-pyrazolo[3,4-b]pyridine-6-carboxamide] | 317.85 | 206 | 532.4 | 128
6 | CN(C)S(=O)(=O)NC(=O)c1cc(N2CCC(N3CCOCC3)CC2)c2c(C3CCC3)nn(-c3cccc(OC(F)F)c3)c2n1 [Compound 652, 3-cyclobutyl-1-[3-(difluoromethoxy)phenyl]-N-(dimethylsulfamoyl)-4-[4-(morpholin-4-yl)piperidin-1-yl]-1H-pyrazolo[3,4-b]pyridine-6-carboxamide] | 289.03 | 84.1 | 499.65 | 24.9
7 | CN(C(=O)c1cc(N2CCC(N3CCOCC3)CC2)c2c(C3CCC3)nn(-c3ccccc3)c2n1)S(C)(=O)=O [Compound 656, 3-cyclobutyl-N-(methanesulfonyl)-N-methyl-4-[4-(morpholin-4-yl)piperidin-1-yl]-1-phenyl-1H-pyrazolo[3,4-b]pyridine-6-carboxamide] | 102.63 | – | 289.68 | –
8 | COCC1CCN(c2cc(C(=O)N(C)S(C)(=O)=O)nc3c2c(C2CCC2)nn3-c2ccccc2)CC1 [Compound 657, 3-cyclobutyl-N-(methanesulfonyl)-4-[4-(methoxymethyl)piperidin-1-yl]-N-methyl-1-phenyl-1H-pyrazolo[3,4-b]pyridine-6-carboxamide] | 98 | 281 | 270.75 | 197
9 | CCS(=O)(=O)N(C)C(=O)c1cc(N2CCC(N3CCOCC3)CC2)c2c(C3CCC3)nn(-c3ccccc3)c2n1 [Compound 658, 3-cyclobutyl-N-(ethanesulfonyl)-N-methyl-4-[4-(morpholin-4-yl)piperidin-1-yl]-1-phenyl-1H-pyrazolo[3,4-b]pyridine-6-carboxamide] | 99.025 | – | 270.6 | –
10 | CN1CCCN(C(=O)c2cc(N3CCC(CN4CCCC4)CC3)c3c(C4CCC4)nn(-c4ccccc4)c3n2)S1(=O)=O [Compound 660, 2-(3-cyclobutyl-1-phenyl-4-{4-[(pyrrolidin-1-yl)methyl]piperidin-1-yl}-1H-pyrazolo[3,4-b]pyridine-6-carbonyl)-6-methyl-1λ^6,2,6-thiadiazinane-1,1-dione] | 34.92 | 932 | 172.1 | 235
11 | O=C(c1cc(N2CCC(CN3CCCC3)CC2)c2c(C3CCC3)nn(-c3ccccc3)c2n1)N1CCCS1(=O)=O [Compound 661, 2-(3-cyclobutyl-1-phenyl-4-{4-[(pyrrolidin-1-yl)methyl]piperidin-1-yl}-1H-pyrazolo[3,4-b]pyridine-6-carbonyl)-1λ^6,2-thiazolidine-1,1-dione] | 67.125 | 155 | 227.45 | 135
12 | CN(C(=O)c1cc(N2CCC(CN3CCCC3)CC2)c2c(C3CCC3)nn(-c3ccccc3)c2n1)S(C)(=O)=O [Compound 662, 3-cyclobutyl-N-(methanesulfonyl)-N-methyl-1-phenyl-4-{4-[(pyrrolidin-1-yl)methyl]piperidin-1-yl}-1H-pyrazolo[3,4-b]pyridine-6-carboxamide] | 134.35 | 124 | 346.65 | 104
13 | O=C(c1cc(N2CCC(CN3CCCC3)CC2)c2c(C3CCC3)nn(-c3ccccc3)c2n1)N1CCCCS1(=O)=O [Compound 663, 2-(3-cyclobutyl-1-phenyl-4-{4-[(pyrrolidin-1-yl)methyl]piperidin-1-yl}-1H-pyrazolo[3,4-b]pyridine-6-carbonyl)-1λ^6,2-thiazinane-1,1-dione] | 57.9 | 234 | 206.5 | 103
14 | CN1CCCN(C(=O)c2cc(N3CCC(N4CCOCC4)CC3)c3c(C4CCC4)nn(-c4ccccc4)c3n2)S1(=O)=O [Compound 664, 2-{3-cyclobutyl-4-[4-(morpholin-4-yl)piperidin-1-yl]-1-phenyl-1H-pyrazolo[3,4-b]pyridine-6-carbonyl}-6-methyl-1λ^6,2,6-thiadiazinane-1,1-dione] | 70.082 | 278 | 230.48 | 172
15 | O=C(c1cc(N2CCC(N3CCOCC3)CC2)c2c(C3CCC3)nn(-c3ccccc3)c2n1)N1CCCS1(=O)=O [Compound 665, 2-{3-cyclobutyl-4-[4-(morpholin-4-yl)piperidin-1-yl]-1-phenyl-1H-pyrazolo[3,4-b]pyridine-6-carbonyl}-1λ^6,2-thiazolidine-1,1-dione] | 101.9 | 259 | 271.8 | 101
16 | O=C(c1cc(N2CCC(N3CCOCC3)CC2)c2c(C3CCC3)nn(-c3ccccc3)c2n1)N1CCCCS1(=O)=O [Compound 666, 2-{3-cyclobutyl-4-[4-(morpholin-4-yl)piperidin-1-yl]-1-phenyl-1H-pyrazolo[3,4-b]pyridine-6-carbonyl}-1λ^6,2-thiazinane-1,1-dione] | 99.775 | 256 | 266.6 | 122
17 | COCC1CCN(c2cc(C(=O)N3CCCS3(=O)=O)nc3c2c(C2CCC2)nn3-c2ccccc2)CC1 [Compound 667, 2-{3-cyclobutyl-4-[4-(methoxymethyl)piperidin-1-yl]-1-phenyl-1H-pyrazolo[3,4-b]pyridine-6-carbonyl}-1λ^6,2-thiazolidine-1,1-dione] | 75.435 | 208 | 225.5 | 85.5
18 | COCC1CCN(c2cc(C(=O)N3CCCCS3(=O)=O)nc3c2c(C2CCC2)nn3-c2ccccc2)CC1 [Compound 668, 2-{3-cyclobutyl-4-[4-(methoxymethyl)piperidin-1-yl]-1-phenyl-1H-pyrazolo[3,4-b]pyridine-6-carbonyl}-1λ^6,2-thiazinane-1,1-dione] | 89.495 | 384 | 307.4 | 257
19 | CNS(=O)(=O)NC(=O)c1cc(N2CCC(COC)CC2)c2c(C3CCC3)nn(-c3ccc(F)cc3)c2n1 [Compound 669, 3-cyclobutyl-1-(4-fluorophenyl)-4-[4-(methoxymethyl)piperidin-1-yl]-N-(methylsulfamoyl)-1H-pyrazolo[3,4-b]pyridine-6-carboxamide] | 334.9 | 211 | 394 | 244
20 | COCCS(=O)(=O)NC(=O)c1cc(N2CCC(COC)CC2)c2c(C3CCC3)nn(-c3ccc(F)cc3)c2n1 [Compound 670, 3-cyclobutyl-1-(4-fluorophenyl)-N-(2-methoxyethanesulfonyl)-4-[4-(methoxymethyl)piperidin-1-yl]-1H-pyrazolo[3,4-b]pyridine-6-carboxamide] | 399.2 | 277 | 477.6 | 191
21 | COCC1CCN(c2cc(C(=O)NS(=O)(=O)N3CCOCC3)nc3c2c(C2CCC2)nn3-c2ccc(F)cc2)CC1 [Compound 671, 3-cyclobutyl-1-(4-fluorophenyl)-4-[4-(methoxymethyl)piperidin-1-yl]-N-(morpholine-4-sulfonyl)-1H-pyrazolo[3,4-b]pyridine-6-carboxamide] | 252.95 | 274 | 346.1 | 107
